The source made the active and inactive calls. The rule behind the calls is not given here.
Assays:
[1] = target: Tubulin beta (Homo sapiens) (UniProt P68371+Q9H4B7+Q13509+P04350+Q3ZCM7+P07437+Q13885+Q9BVA1+Q9BUF5+A6NNZ2); experiment: Binding affinity to beta-tubulin (unknown origin) by pull down assay; type: protein assay
[2] = target: T1, Hexokinase-2 (Homo sapiens) (UniProt P52789); experiment: Binding affinity to human HK2 transfected in Escherichia coli BL21 (DE) by pull down assay
T1 sequence (whole entry): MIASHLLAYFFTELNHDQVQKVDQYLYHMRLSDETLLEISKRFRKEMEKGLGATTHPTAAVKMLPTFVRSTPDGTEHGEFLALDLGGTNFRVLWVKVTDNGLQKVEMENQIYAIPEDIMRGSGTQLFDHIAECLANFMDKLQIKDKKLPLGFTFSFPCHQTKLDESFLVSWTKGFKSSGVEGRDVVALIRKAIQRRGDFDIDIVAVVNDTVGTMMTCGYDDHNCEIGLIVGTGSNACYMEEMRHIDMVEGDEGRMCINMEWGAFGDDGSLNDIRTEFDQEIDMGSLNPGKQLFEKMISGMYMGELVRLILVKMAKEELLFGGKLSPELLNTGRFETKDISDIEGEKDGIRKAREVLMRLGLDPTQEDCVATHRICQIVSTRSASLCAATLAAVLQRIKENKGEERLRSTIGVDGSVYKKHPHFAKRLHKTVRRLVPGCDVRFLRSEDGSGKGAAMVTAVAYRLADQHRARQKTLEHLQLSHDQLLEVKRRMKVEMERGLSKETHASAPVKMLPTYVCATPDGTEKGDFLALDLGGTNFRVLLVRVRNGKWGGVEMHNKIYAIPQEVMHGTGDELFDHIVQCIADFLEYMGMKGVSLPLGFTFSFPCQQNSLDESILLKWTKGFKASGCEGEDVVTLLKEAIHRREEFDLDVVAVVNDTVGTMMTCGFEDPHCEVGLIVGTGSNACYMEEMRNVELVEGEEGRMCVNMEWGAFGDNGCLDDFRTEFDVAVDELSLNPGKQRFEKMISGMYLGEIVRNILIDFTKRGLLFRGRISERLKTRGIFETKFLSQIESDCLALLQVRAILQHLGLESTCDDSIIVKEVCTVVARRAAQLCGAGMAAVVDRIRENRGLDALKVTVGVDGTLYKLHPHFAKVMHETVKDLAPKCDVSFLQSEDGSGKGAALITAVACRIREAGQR

[3] = target: T2, Tubulin (Homo sapiens) (UniProt P68371+Q9H4B7+P0DPH7+P68366+Q13509+Q71U36+P04350+Q3ZCM7+P07437+P68363+Q9BQE3+Q6PEY2+Q13885+Q9BVA1+Q9BUF5); experiment: Disruption of microtubule network in human MDA-MB-231 cells assessed as disorganized microtubule network at 1 uM incubated for 24 hrs by DAPI staining based fluorescence microscopic analysis; type: cell-based
[4] = target: T2, Tubulin (Homo sapiens); experiment: Disruption of microtubule network in human MDA-MB-231 cells assessed as point-like fiber structure at 1 uM incubated for 24 hrs by DAPI staining based fluorescence microscopic analysis; type: cell-based
[5] = system: MDA-MB-231; experiment: Antiproliferative activity against human MDA-MB-231 cells assessed as reduction in cell proliferation incubated for 48 hrs by CCK-8 assay; type: functional, cell-based; settings: MDA-MB-231, 48 h
[6] = target: T2, Tubulin (Homo sapiens); experiment: Disruption of microtubule network in human MDA-MB-231 cells assessed as punctate fiber structure at 1 uM incubated for 24 hrs by DAPI staining based fluorescence microscopic analysis; type: cell-based
[7] = target: T2, Tubulin (Homo sapiens); experiment: Disruption of microtubule network in human MDA-MB-231 cells assessed as atrophy fiber structure at 1 uM incubated for 24 hrs by DAPI staining based fluorescence microscopic analysis; type: cell-based
[8] = target: T1, Hexokinase-2 (Homo sapiens); experiment: Inhibition of human HK2 transfected in Escherichia coli BL21 (DE) incubated for 10 mins
[9] = target: T2, Tubulin (Homo sapiens); experiment: Disruption of microtubule network in human MDA-MB-231 cells assessed as reduced microtubule network at 1 uM incubated for 24 hrs by DAPI staining based fluorescence microscopic analysis; type: cell-based

Row | Activity [1] | Activity [2] | Activity [3] | Activity [4] | IC50 [5] | Activity [6] | Activity [7] | inhibition [8] | Activity [9] | SMILES
1 | Active | Active | – | – | – | – | – | – | – | O=C1N[C@H]2[C@H](CS[C@H]2CCCCC(=O)N2CCN(c3ccc4c(c3)c(/C=C/C(=O)c3cccnc3)cn4S(=O)(=O)c3ccc([N+](=O)[O-])cc3)CC2)N1
2 | – | – | Active | Active | 1.94 µM | Active | Active | inactive | Active | COc1ccc(CCc2cc(OC)c(OC)c(OC)c2)cc1O

— ChEMBL document CHEMBL6096661, “Synthesis, biological evaluation and mechanism study of a novel indole-pyridine chalcone derivative as antiproliferative agent against tumor cells through dual targeting tubulin and HK2” (Eur J Med Chem, 2025)
